Assay results taken from patent US8754051B2, “Peptide modulators of the δPKC interaction with the d subunit of F1Fo ATP synthase/ATPase and uses thereof” (Georgia Regents Research Institute, Inc., priority 2009, dated 2014).
Peptide text beside a SMILES is read from it.

Columns and labels:
[1] = test system: mitochondrial δPKC levels; assay: Mitochondrial δPKC levels (Western blot) in hearts of streptozotocin-treated rats; conditions: hearts 6 weeks after STZ injection (50 mg/kg)
[2] = test system: myocardial ATP levels; assay: Myocardial ATP levels in hearts of streptozotocin-treated rats; conditions: hearts 6 weeks after STZ injection (50 mg/kg)
[3] = target: T1, δPKC-dF1Fo co-IP (Rattus norvegicus, UniProt P09215); assay: δPKC co-immunoprecipitation with dF1Fo in NCM mitochondria after phorbol ester; assay type: cell-based; conditions: 100 nM 4-β PMA, 20 min, NCMs
T1 construct: endogenous in cells; host or cells: neonatal rat cardiac myocytes (NCMs), isolated mitochondria
Method: FIGS. 1A-1B: Delta protein kinase C (δPKC) co-immunoprecipitates (co-IPs) with the “d” subunit of F1Fo ATP synthase (dF1Fo) following 100 nM 4-β PMA treatment. Neonatal cardiac myocytes (NCMs) were treated with 100 nM 4-α PMA (0 nM in Figure), 3 nM 4-β PMA for 1 hr. or 100 nM 4-β PMA for 20 min. Mitochondria were isolated using Percoll/Optiprep density gradients and then subjected to immunoprecipitations using antisera to dF1Fo. IPs were resolved by […] and transferred onto nitrocellulose paper (NCP) followed by Western blot analyses using antisera against αPKC, δPKC, εPKC and ζPKC. FIG. 1A, representative autoradiographs for each PKC isozyme are shown. FIG. 1B, mean±S.E. densitometry values for three independent myocyte preparations. Asterisks indicate significant differences between 4-α PMA and 3 nM or 100 nM 4-β PMA (p<0.05). # indicates statistically significant differences between 3 and 100 nM 4-β PMA (p<0.05).
Phorbol esters such as 4-β phorbol 12-myristate-13-acetate (4-β PMA), are well known activators of most PKC isozymes and should be useful in determining if one or more PKC isozymes induced effects on the F1Fo complex. […] In FIG. 1, 4-α PMA is shown as “0” concentration and […] values are reported for 3-100 nM concentrations. IPs were next subjected to Western blot analyses with anti-PKC isozyme-selective antisera. […]

[4] = target: T2, δPKC binding to dF1Fo (Rattus norvegicus, UniProt P09215); assay: PKC overlay binding assay; conditions: overlay with purified PKC isozymes, DG/PS; read-out: IC50 for modulation of δPKC-dF1Fo binding
T2 construct: with purified rat brain PKC (mixture of PKC isozymes); from tissue; host or cells: PKC from rat brain; F1Fo ATPase holo-enzyme from adult rat cardiac ventricle

[5] = test system: isolated rat hearts, ischemia/reperfusion injury; assay: Infarct size (TTC staining) after ischemia/reperfusion in isolated rat hearts
Method: Hearts were excised from 2 month-old Sprague-Dawley rats and subjected to Langendorff-mode perfusion with oxygenated Kreb's buffer. Following a 20 min equilibration to attain stable beating hearts either were perfused continuously for 110 minutes (Con) or were subjected to 20 minutes of global no-flow ischemia and then 90 minutes of oxygenated reperfusion (IR). For groups receiving the δPKC-dF1Fo inhibitor or facilitator peptides (complete amino acid sequences shown in FIG. 13) 20 nM concentrations of the peptides were given at the onset of the 90 minute reperfusion period for 20 minutes. At the termination of experimentation atria were removed and ventricles were rapidly washed in chilled Kreb's buffer and partially frozen to facilitate cutting the hearts into sections. […]
Histograms represent mean±S.E. infarction expressed as a percentage of the entire left ventricular area. […]
The effects of the peptides of the present invention on infarct size following IR injury in the Langendorff model was assessed, Hearts were perfused in the absence of peptide, under normoxic conditions for 110 minutes (Con), or were given a 20 minute global, no flow, ischemia exposure followed by normoxic perfusion for 90 minutes. δPKC-dF1Fo modulatory peptides (20 nM) were administered at the onset of reperfusion for 20 minutes. […]

T2 sequence (P09215 whole entry): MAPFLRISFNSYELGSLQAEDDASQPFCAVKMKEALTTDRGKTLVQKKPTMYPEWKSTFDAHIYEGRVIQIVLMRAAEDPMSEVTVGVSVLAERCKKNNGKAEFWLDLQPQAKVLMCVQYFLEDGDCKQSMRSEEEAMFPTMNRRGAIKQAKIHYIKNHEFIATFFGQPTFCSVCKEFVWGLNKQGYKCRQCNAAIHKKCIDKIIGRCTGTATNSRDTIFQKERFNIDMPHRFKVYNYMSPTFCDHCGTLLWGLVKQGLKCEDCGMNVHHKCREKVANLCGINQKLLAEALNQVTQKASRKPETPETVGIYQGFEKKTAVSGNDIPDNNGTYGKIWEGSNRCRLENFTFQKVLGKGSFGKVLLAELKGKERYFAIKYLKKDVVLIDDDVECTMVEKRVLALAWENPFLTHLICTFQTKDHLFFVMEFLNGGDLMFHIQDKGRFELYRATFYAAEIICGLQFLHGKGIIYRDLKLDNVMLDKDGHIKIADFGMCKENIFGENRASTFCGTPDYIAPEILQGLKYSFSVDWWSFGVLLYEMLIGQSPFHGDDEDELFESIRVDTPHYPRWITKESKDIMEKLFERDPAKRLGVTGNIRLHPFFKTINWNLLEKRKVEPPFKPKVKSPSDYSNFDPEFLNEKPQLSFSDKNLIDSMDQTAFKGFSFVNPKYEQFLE
T1 sequence (P09215 whole entry): as above
T1 sequence (P31399 2-161 partner limits assumed): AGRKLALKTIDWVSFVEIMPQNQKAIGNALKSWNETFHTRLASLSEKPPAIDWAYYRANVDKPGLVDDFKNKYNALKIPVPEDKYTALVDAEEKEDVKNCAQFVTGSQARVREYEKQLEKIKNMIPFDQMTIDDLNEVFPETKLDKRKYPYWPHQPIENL

CN(N=O)C(=O)N[C@H]1C(O)O[C@H](CO)[C@@H](O)[C@@H]1O (mixture of isomers) [STZ, streptozotocin]
increase in mitochondrial δPKC levels [1]: greater than 10 fold
decrease of myocardial ATP levels [2]: 2.3±0.1 fold

CCCCCCCCCCCCCC(=O)O[C@@H]1[C@@H](C)[C@@]2(O)[C@@H](C=C(CO)C[C@]3(O)C(=O)C(C)=C[C@@H]23)[C@@H]2C(C)(C)[C@]12OC(C)=O [4-β PMA, 4-β phorbol 12-myristate-13-acetate]
increase of δPKC-dF1Fo co-IP above 3 nM 4-β PMA-induced levels [3]: 3.4±0.3 fold

CC[C@H](C)[C@H](NC(=O)[C@@H](NC(=O)[C@H](CCCCN)NC(=O)[C@H](CC(C)C)NC(=O)[C@H](C)NC(=O)[C@H](CC(C)C)NC(=O)[C@H](CCCCN)NC(=O)[C@H](CCCNC(=N)N)NC(=O)CNC(=O)[C@H](C)N)[C@@H](C)O)C(=O)N[C@@H](CC(=O)O)C(=O)N[C@@H](Cc1c[nH]c2ccccc12)C(=O)N[C@H](C(=O)N[C@@H](CO)C(=O)N[C@@H](Cc1ccccc1)C(=O)O)C(C)C [SEQ ID NO: 1, AGRKLALKTIDWVSF] (H-AGRKLALKTIDWVSF-OH; N-terminus and C-terminus assumed)
IC50 [4]: ~300 µM

CC[C@H](C)[C@H](NC(=O)[C@H](CCSC)NC(=O)[C@H](CC(N)=O)NC(=O)[C@H](CCCCN)NC(=O)[C@@H](NC(=O)[C@H](CCCCN)NC(=O)[C@H](CCC(=O)O)NC(=O)[C@H](CC(C)C)NC(=O)[C@H](CCC(N)=O)NC(=O)[C@H](CCCCN)NC(=O)[C@H](CCC(=O)O)NC(=O)[C@H](Cc1ccc(O)cc1)NC(=O)[C@H](CCC(=O)O)NC(=O)[C@H](CCCNC(=N)N)NC(=O)[C@@H](NC(=O)[C@@H](N)CCCNC(=N)N)C(C)C)[C@@H](C)CC)C(=O)O [SEQ ID NO: 2, RVREYEKQLEKIKNMI] (H-RVREYEKQLEKIKNMI-OH; N-terminus and C-terminus assumed)
IC50 [4]: ~300 µM

YGRKKRRQRRR-MLATRALSLIGKRAISTSVC-RVRE YEKQLEKIKNMI-DYKDDDDK (YGRKKRRQRRRMLATRALSLIGKRAISTSVCRVREYEKQLEKIKNMIDYKDDDDK; sequence of mitochondrial-targeted facilitator of dPKC-dF1Fo interaction) [PKC-dF1Fo agonist peptide]
enhancement of infarction [5]: 27±3%
